Results reported in ChEMBL document CHEMBL1201862, “PubChem BioAssay data set” (2004).
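48-hour exposure; five concentrations; linearly interpolated endpoints. Abbreviation: GI50, concentration required for 50% inhibition of growth.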 Active and inactive are the calls of the source. No stated cut-off is given here; in the data, active = GI50 up to about 1.1 µM and inactive = higher.

Columns and labels:
Experiment in all cases: NCI anticancer screen, dose series, 48 h
M14 = test system: M14
OVCAR-3 = test system: OVCAR-3
U-251 = test system: U-251
OVCAR-8 = test system: OVCAR-8
KM12 = test system: KM12
UACC-62 = test system: UACC-62
HCC 2998 = test system: HCC 2998
RPMI-8226 = test system: RPMI-8226
MOLT-4 = test system: MOLT-4
OVCAR-4 = test system: OVCAR-4
UO-31 = test system: UO-31
NCI-H522 = test system: NCI-H522
SW-620 = test system: SW-620
IGROV-1 = test system: IGROV-1
ACHN = test system: ACHN
SK-MEL-28 = test system: SK-MEL-28
A549 = test system: A549
NCI-H226 = test system: NCI-H226
MCF7 = test system: MCF7

Compound	GI50 (M14)	GI50 (OVCAR-3)	GI50 (U-251)	GI50 (OVCAR-8)	GI50 (KM12)	GI50 (UACC-62)	GI50 (HCC 2998)	GI50 (RPMI-8226)	GI50 (MOLT-4)	GI50 (OVCAR-4)	GI50 (UO-31)	GI50 (NCI-H522)	GI50 (SW-620)	GI50 (IGROV-1)	GI50 (ACHN)	GI50 (SK-MEL-28)	GI50 (A549)	GI50 (NCI-H226)	GI50 (MCF7)
O=C(O)CSc1nnc(/C=C/c2ccccc2)[nH]1	> 100 µM (inactive)	> 100 µM (inactive)	> 100 µM (inactive)	> 100 µM (inactive)	> 100 µM (inactive)	> 100 µM (inactive)	> 100 µM (inactive)	> 100 µM (inactive)	> 100 µM (inactive)	> 100 µM (inactive)	> 100 µM (inactive)	> 100 µM (inactive)	> 57.5 µM (inactive)	> 100 µM (inactive)	> 100 µM (inactive)	> 100 µM (inactive)	> 100 µM (inactive)	> 100 µM (inactive)	
O=C1C2c3[nH]c4ccccc4c3C3CCCCCC3C2C(=O)N1c1ccccc1 (stereo not drawn)	15.9 µM (inactive)	16.3 µM (inactive)	18.7 µM (inactive)	11.8 µM (inactive)	> 100 µM (inactive)	> 63.7 µM (inactive)	> 56.1 µM (inactive)	> 100 µM (inactive)	16 µM (inactive)	3.09 µM (inactive)	38.2 µM (inactive)	37.7 µM (inactive)	24.8 µM (inactive)	21.8 µM (inactive)	39.6 µM (inactive)	> 59.8 µM (inactive)	34.4 µM (inactive)	21.3 µM (inactive)	
CC(C)(C)CNC(=O)NCn1cc(-c2ccccc2)nn1	> 100 µM (inactive)		> 100 µM (inactive)	> 100 µM (inactive)	> 100 µM (inactive)		> 100 µM (inactive)	> 100 µM (inactive)	> 100 µM (inactive)	> 10 µM (inactive)		> 100 µM (inactive)	> 100 µM (inactive)	> 100 µM (inactive)	> 100 µM (inactive)	> 100 µM (inactive)	> 100 µM (inactive)	64.6 µM (inactive)	> 100 µM (inactive)
COC(=O)C1CC(c2ccc(Cl)cc2)=NO1 (stereo not drawn)	> 100 µM (inactive)	> 100 µM (inactive)	> 100 µM (inactive)	> 100 µM (inactive)	> 100 µM (inactive)	> 100 µM (inactive)	> 100 µM (inactive)	> 100 µM (inactive)	> 100 µM (inactive)	> 100 µM (inactive)	> 100 µM (inactive)	> 100 µM (inactive)	> 100 µM (inactive)	> 100 µM (inactive)	> 100 µM (inactive)	> 100 µM (inactive)	> 100 µM (inactive)	> 100 µM (inactive)	
COC(=O)c1cc(O)ccc1O [METHYL 2,5-DIHYDROXYBENZOATE]	> 100 µM (inactive)	> 100 µM (inactive)	> 100 µM (inactive)	> 100 µM (inactive)	> 100 µM (inactive)	> 100 µM (inactive)	> 100 µM (inactive)	> 100 µM (inactive)	> 100 µM (inactive)	> 100 µM (inactive)	> 100 µM (inactive)	93.1 µM (inactive)	> 100 µM (inactive)	> 100 µM (inactive)	> 100 µM (inactive)	> 100 µM (inactive)	> 100 µM (inactive)	> 100 µM (inactive)	
CCOc1ccc(/C=C/c2cc(OC)c(OC)c(OC)c2)cc1	0.841 µM (active)	0.596 µM (active)	0.867 µM (active)	3.9 µM (inactive)	0.411 µM (active)	0.385 µM (active)	1.14 µM (inactive)	0.601 µM (active)	1.37 µM (inactive)	11.7 µM (inactive)	17.1 µM (inactive)	0.429 µM (active)	0.791 µM (active)	2.19 µM (inactive)	1.56 µM (inactive)	0.83 µM (active)	1.08 µM (active)	2.45 µM (inactive)	
COC1=CC(=O)C2C(C1=O)C(c1ccc(OC)c(OC)c1)[C@H]2C (stereo partly drawn)	19 µM (inactive)	19.6 µM (inactive)	> 100 µM (inactive)	20.6 µM (inactive)	> 100 µM (inactive)	> 100 µM (inactive)	> 100 µM (inactive)	14.6 µM (inactive)	7.71 µM (inactive)	16.6 µM (inactive)	> 100 µM (inactive)	12.8 µM (inactive)	20 µM (inactive)	> 100 µM (inactive)	18.7 µM (inactive)	20.3 µM (inactive)	> 100 µM (inactive)	> 100 µM (inactive)	
C=C(C)CC1(O[Si](C)(C)C)C(=O)C(OCC)=C1OCC (stereo not drawn)	> 100 µM (inactive)	> 100 µM (inactive)	> 100 µM (inactive)	> 100 µM (inactive)	> 100 µM (inactive)	> 100 µM (inactive)			> 100 µM (inactive)	> 100 µM (inactive)	> 100 µM (inactive)	> 100 µM (inactive)	> 100 µM (inactive)	> 100 µM (inactive)	> 100 µM (inactive)	> 100 µM (inactive)	> 100 µM (inactive)	> 100 µM (inactive)	> 100 µM (inactive)
N#CCCN(CCC#N)c1ccc(/C=C2\N=C(CN3C(=O)c4ccccc4C3=O)OC2=O)cc1	> 100 µM (inactive)	> 100 µM (inactive)	> 100 µM (inactive)	> 100 µM (inactive)	> 100 µM (inactive)	> 100 µM (inactive)	> 100 µM (inactive)	39.3 µM (inactive)	> 100 µM (inactive)	> 100 µM (inactive)	> 100 µM (inactive)	89.7 µM (inactive)	> 100 µM (inactive)	> 100 µM (inactive)	> 100 µM (inactive)	> 100 µM (inactive)	> 100 µM (inactive)	> 100 µM (inactive)	
CN1CCC2(CC1)/C(=N/C1CCCCC1)NC(=O)N2c1ccccc1	> 100 µM (inactive)		> 100 µM (inactive)	> 100 µM (inactive)	> 100 µM (inactive)	> 100 µM (inactive)	> 100 µM (inactive)	> 100 µM (inactive)	> 100 µM (inactive)		> 100 µM (inactive)		> 100 µM (inactive)	> 100 µM (inactive)	> 100 µM (inactive)	> 100 µM (inactive)	> 100 µM (inactive)	> 100 µM (inactive)	> 100 µM (inactive)
Cc1cc(C)nc(NS(=O)(=O)c2ccc(Nc3c4ccc(Cl)cc4nc4c(C(=O)NCCN(C)C)cccc34)cc2)n1	> 100 µM (inactive)	> 100 µM (inactive)	> 100 µM (inactive)	> 100 µM (inactive)	> 100 µM (inactive)	> 100 µM (inactive)	> 100 µM (inactive)	> 100 µM (inactive)	> 100 µM (inactive)	> 100 µM (inactive)	> 100 µM (inactive)	> 100 µM (inactive)	> 100 µM (inactive)	> 100 µM (inactive)	> 100 µM (inactive)	> 100 µM (inactive)	> 100 µM (inactive)	> 100 µM (inactive)	
